Results reported in EP4699605A1, “USE OF NOVEL COMPOUND FOR TREATING INTRACTABLE DISEASES” (YJ Cerapeutics Inc., priority 2023, dated 2024).

Key:
Assay type in all cases: in vivo, Sprague-Dawley rats
astrocytes = assay: Astrocyte activation in spinal cord of SNI model (GFAP immunohistochemistry and Western blot); details: L4-5 spinal cord
Description: (§1) To be used as a peripheral nerve injury animal model, a sciatic nerve injury (SNI) model was prepared (FIG. 1C). Specifically, 200 to 220 g of male adult Sprague-Dawley rats were anesthetized by intraperitoneal injection of chloral hydrate (500 mg/kg), and then three terminal branches (tibial, common peroneal, and sural nerves) of the right sciatic nerve were approached, and the tibia nerve and the peroneal nerve were tightly ligated with 4-0 silk, and neurectomy was performed at a distal 3 mm position of the ligation site. At this time, a Sham group was a group that exposed only the sciatic nerve without damage.
The activation of astrocytes in the spinal cord, known to play an important role in the process of inducing/persisting neuropathic pain, was confirmed by immunohistochemical staining and Western blot analysis using an anti-GFAP antibody against an intermediate filament protein, Glial fibrillary acidic protein (GFAP) of astrocytes, a marker of astrocyte activation, as in Example 3-1.

[1] = system: traumatic spinal cord injury (SCI) model; assay: Urinary function analysis in SCI model (residual urine volume, UBFS, bladder size and weight)
Description: To be used as a central nerve injury animal model, a traumatic spinal cord injury (SCI) model was prepared (FIG. 1A). Specifically, 230 to 250 g of male adult Sprague-Dawley rats were anesthetized by intraperitoneal injection of chloral hydrate (500 mg/kg), and then the back and neck regions were shaved, and the spinal cord under the back and neck regions was exposed without damaging the dura mater, and a laminectomy was performed at T9 to T10 levels. To stabilize the spine, the spinous processes of T8 and T11 were fixed, and the spine was damaged by free-falling a 10 g weight from a height of 25 mm using an NYU impactor onto the back surface of the exposed spinal cord and then the rats were left in a temperature and humidity-controlled chamber overnight while covering the muscles and skin. After surgery, the rats were subcutaneously injected with a supplement solution (5 ml, lactated ringer) and injected with antibiotics (gentamicin, 5 mg/kg, intramuscular injection) once daily for 5 days. The body weight, remaining food, and the weight of water were confirmed and recorded for all animals, and the bladder was emptied twice daily by passive bladder massage until reflex micturition was established. At this time, a Sham group was a group that was subjected to only laminectomy without damage.
In order to confirm the effect of YJ102 (Chemical Formula 1), a compound of the present disclosure, on urinary disturbances caused by spinal cord injury, immediately after preparing the traumatic spinal cord injury (SCI) model (FIG. 1A) prepared in Example 1 above, YJ102 was dissolved in DMSO, methyl pyrrolidinone, and water (1 : 1.5 : 1) and administered intraperitoneally at 5 mg/kg, and then intraperitoneally administered at 24-hour intervals for 7 days from the next day. Thereafter, the effect of improving bladder functions was analyzed through a residual urine volume test and a urinary bladder function score (UBFS). At this time, a Vehicle group was administered with the same amount of a solution of DMSO, methyl pyrrolidinone, and water. Specifically, in order to determine the amount of urine remaining in the bladder after spinal cord injury, bladder extrusion was performed twice a day by applying pressure to the central bottom portion of the lower abdomen using the index and middle fingers to empty the bladder, and the expelled urine was collected in a catheter and its volume was recorded. […]

microglia = assay: Microglial activation in spinal cord of SNI model (OX-42 staining, p-p38MAPK Western blot)
Description: as §1
To analyze the activation of microglia in the spinal cord, which were known to play an important role in the induction/persistence of neuropathic pain, 4 weeks after nerve injury in the SNI animal model, the spinal cord of 4 and 5 lumbar vertebrae was stained with OX-42 to confirm changes in cell shape and intensity. […] The supernatant was transferred to a new microcentrifuge, the protein concentration was measured using a BCA kit, and samples for Western blot were prepared by adding a 1X sample buffer and boiling for 5 minutes. […]

bladder wall = assay: Bladder hypertrophy (H&E) and collagen content in bladder muscle (Masson's trichrome) after spinal cord injury
Excerpt: As one indicator of bladder dysfunction, bladder hypertrophy, which was a thicker bladder wall, and changes in collagen content in the bladder muscle were identified. Specifically, a spinal cord injury […] animal model was perfused through the left ventricle, and fixed with 4% paraformaldehyde, and the bladder was extracted, and then embedded in an optimal cutting temperature (OCT) compound, and the tissue was sectioned at a 10 µm thickness using a cryostat. In order to measure the bladder wall thickness, Hematoxylene & Eosin (Abcam) staining was performed according to a manufacturer's protocol, and in order to measure the collagen content in the muscle, Masson's trichrome (Sigma-Aldrich) staining was performed.

[2] = day 1 after spinal cord injury, H&E

For CCc1ccc(N(C(=O)COC)c2nc3cc(Cl)ccc3o2)cc1 [YJ102], the GFAP expression intensity (astrocytes) was “significantly decreased”, the bladder size ([1]; 5 mg/kg intraperitoneally) was “significantly reduced” and the bladder weight ([1]; 5 mg/kg intraperitoneally) was “significantly reduced”. The residual urine volume ([1]; 5 mg/kg intraperitoneally at 24-hour intervals, vs Veh group, from the first day of administration) was “significantly reduced”, the “bladder function restoration using the UBFS” value ([1]; 5 mg/kg intraperitoneally, vs Vehicle group on day 3 and day 7 after spinal cord injury) was “significantly increased” and the “microglia activation changes (OX-42 intensity, activated morphology)” value (microglia; 4 weeks after nerve injury, L4-L5 spinal cord, vs Vehicle) was “significantly reduced”. The “amount of p-p38MAPK” value (microglia; spinal cord, Western blot) was “significantly reduced”, the “collagen content in the muscle” value (bladder wall; after spinal cord injury, Masson's trichrome) was “maintained at a level almost similar to that of the normal group” and the “thickness of the lamina propria” value (bladder wall; [2]) was “significantly reduced”. The “thickness of the muscle layer” value (bladder wall; [2]) was “significantly reduced” and the “thickness of the urothelium layer” value (bladder wall; [2]) was “significantly reduced”.
